Results taken from paper PMC5584945, “Evaluation of robenidine analog NCL195 as a novel broad-spectrum antibacterial agent” (PLoS ONE, 2017).

Legend:
[1] = tested on: S. pneumoniae; assay: MIC, broth micro-dilution (CLSI); type: cell-based, Streptococcus pneumoniae
[2] = tested on: S. pneumoniae D39; assay: Time-dependent killing assay; type: cell-based, Streptococcus pneumoniae; details: 4× MIC
Experimental: Time kill assays were performed (in duplicate) essentially as described previously with slight modifications. Briefly, a few colonies of luminescent S. pneumoniae strain D39LUX or luminescent S. aureus ATCC 12600 (Xen29) from an overnight HBA were emulsified in normal saline and adjusted to A600 nm = 0.10 (equivalent to approx. 5 × 10^7 c.f.u. per ml) and the bacterial suspension further diluted 1:20 in saline. […] The compounds were serially diluted in 100% DMSO at 100× the final desired concentration and 100 μl of appropriate concentrations added to each 10 ml preparation. Duplicate cultures were incubated at 37°C (+ 5% CO2 for S. pneumoniae D39), with samples withdrawn at 0, 0.5, 1, 2, 4, 6, 8 and 24 h, serially diluted 10-fold and plated on HBA overnight at 37°C (+ 5% CO2 for S. pneumoniae D39) for bacterial enumeration.

[3] = Streptococcus pneumoniae, S1 Table isolates, 5% FBS

CC1(C)S[C@@H]2[C@H](NC(=O)[C@H](N)c3ccccc3)C(=O)N2[C@H]1C(=O)O [Ampicillin]
1 µg/mL: MIC ([1]; Streptococcus pneumoniae, WCH16 (serotype 6A), 5% FBS)
8 h: Time to reduce the population below the limit of detection [2]
0.06 to 1 µg/mL: MIC range ([1]; S1 Table isolates, 5% FBS + 3% washed RBC)
0.125 µg/mL: MIC ([1]; Streptococcus pneumoniae, A66.1 (serotype 3), 5% FBS) | MIC ([1]; Streptococcus pneumoniae, ATCC6303, ATCC 6303 (serotype 3), 5% FBS + 3% washed RBC) | MIC ([1]; Streptococcus pneumoniae, D39/D39LUX (serotype 2), 5% FBS) | MIC50 [1, 3] | MIC ([1]; Streptococcus pneumoniae, TIGR4 (serotype 4), 5% FBS) | MIC ([1]; Streptococcus pneumoniae, WCH43 (serotype 4), 5% FBS) | MIC ([1]; Streptococcus pneumoniae, WCH46 (serotype 4), 5% FBS) | MIC ([1]; Streptococcus pneumoniae, WCH89 (serotype 7), 5% FBS) | MIC ([1]; Streptococcus pneumoniae, WCH158 (serotype 19F), 5% FBS) | MIC ([1]; Streptococcus pneumoniae, WCH184 (serotype 19F), 5% FBS) | MIC ([1]; Streptococcus pneumoniae, WCH211 (serotype 11), 5% FBS) | MIC ([1]; Streptococcus pneumoniae, WU2 (serotype 3), 5% FBS)
0.06 µg/mL: MIC ([1]; Streptococcus pneumoniae, L82016 (serotype 6B), 5% FBS) | MIC ([1]; Streptococcus pneumoniae, P9 (serotype 6A), 5% FBS) | MIC ([1]; Streptococcus pneumoniae, P21 (serotype 3), 5% FBS) | MIC ([1]; Streptococcus pneumoniae, WCH86 (serotype 4), 5% FBS) | MIC ([1]; Streptococcus pneumoniae, WCH137 (serotype 6A), 5% FBS)
0.5 µg/mL: MIC90 ([1]; Streptococcus pneumoniae, 21 isolates) | MIC ([1]; Streptococcus pneumoniae, EF3030 (serotype 19F), 5% FBS) | MIC90 [1, 3] | MIC ([1]; Streptococcus pneumoniae, WCH57 (serotype 8), 5% FBS) | MIC ([1]; Streptococcus pneumoniae, WCH77 (serotype 5), 5% FBS) | MIC ([1]; Streptococcus pneumoniae, WCH92 (serotype 4), 5% FBS)
